According to patent US20060019883A1, “Use of cyclin D1 inhibitors” (priority 2003, published 2006):
“Also recorded” adds a separate entry of the source.

Test system: ER-positive breast cancer
Test: Randomised clinical trial: 2 years of tamoxifen treatment or no adjuvant treatment, breast cancer specific survival in relation to cyclin D1
Assay type: in vivo, patients
Settings: for Median survival time of deceased patients / Mortality rate: tumours with >90% ER positive cells
Excerpt: The breast cancer material used in this study initially included 168 post-menopausal (>55 years old) patients with small (T0-T1) node-negative (N0) tumours. […] Data regarding breast cancer specific survival was obtained from the Swedish Cancer Registry (2002) resulting in a mean follow-up time of 18 years (range 15-22 years). Representative parts of the tumours were assembled in a tissue array, sectioned and immunohistochemically stained for ER (antibodies M7047 from Dako, Denmark, diluted 1/200) and cyclin D1 (M7155, Dako, Denmark, 1/100). […] The alternative model is that cyclin D1 could sequester cdk-inhibitors thereby effecting the G1/S control and tamoxifen response.
E: Cumulative total survival in the patient group of cyclin D1 high breast cancer subdivided according to tamoxifen treatment or nor treatment.

[1] = High CD1 and tamoxifen treatment
[2] = Moderate/low CD1 and tamoxifen treatment

With `CC/C(=C(\c1ccccc1)c1ccc(OCCN(C)C)cc1)c1ccccc1` [tamoxifen] the “Difference in survival for tamoxifen in comparison to no treatment” value (102 tumours with >90% ER positive cells) was “marked difference in survival”, the “Median survival time of deceased patients” value [1] was 47 months* and the Mortality rate [1] was 39%. The “Median survival time of deceased patients” value [2] was 169 months, the Mortality rate [2] was 63% and the “Difference in survival for tamoxifen in comparison to no treatment” value (tumours lacking or expressing low ER and tumours with 10-90% ER positive cells) was “did not show any significant difference in survival”. The “Difference in survival between tamoxifen and no treatment” value (tumours with high cyclin D1) was “this difference was eliminated; also recorded: little or no effect”.
